Source: US20130142882A1, “METHODS AND COMPOSITIONS FOR TREATMENT, MODIFICATION AND MANAGEMENT OF BONE CANCER PAIN” (GOLDEN BIOTECHNOLOGY CORPORATION, priority 2011, published 2013)

Test system: rat model of bone cancer pain (Walker 256 rat mammary gland carcinoma cells injected into the right tibia)
Assay: Mechanical allodynia (Von Frey test) in a rat model of bone cancer pain
Type: in vivo, Rat (Sprague-Dawley)
Settings: 30 μg/kg s.c. every second day
Experimental: The objective of this study was to assess the potential anti-nociceptive and anti-tumourigenic effects of Compound 1, at doses of 15, 30 and 45 mg/kg, in an animal model of bone cancer pain. Metastasis of cancer cells to the bone was modeled by injecting Walker 256 rat mammary gland carcinoma cells into the medullary cavity of the right tibia (Mao-Yinga, et al. A rat model of bone cancer pain induced by intra-tibia inoculation of Walker 256 mammary gland carcinoma cells. Biochem Biophys Res Commun 2006; 345: 1292-1298). The development of mechanical allodynia was monitored using an established behavioural test (Von Frey test). Treatment administration was chronic, from the day of surgery, and administered twice daily for 21 days to determine whether there was a prophylactic effect on the development of mechanical allodynia. Zoledronic acid was used as a reference substance. No regulatory test guidelines were applicable to this study.
Rats have been studied in this model of bone cancer pain. The route of administration of Compound 1 and vehicle was oral. The doses of Compound 1 were 15, 30 and 45 mg/kg, twice a day (approximately 10 h apart) for 21 days.
The dose of zoledronic acid was 30 μg/kg, as a single administration, every second day from the day of surgery, based on historical data. The route of administration of zoledronic acid was subcutaneous.
The dose volume for test substance and vehicle treatments was 5 mL/kg. The vehicle for Compound 1 was corn oil. Each rat allocated to test substance or vehicle treatments received an oral dose, by gavage, twice daily (approximately 8 am and 6 pm) for 21 consecutive days. The dose volume for the reference substance treatment was 1 mL/kg. Each rat allocated to reference substance treatment received a single subcutaneous dose, by injection (approximately 8 am) every second day from the day of surgery.
Cell preparation. Walker 256 rat mammary gland carcinoma cells (obtained from the American Type Culture Collection (ATCC)) were harvested from sub-confluent cultures growing in vitro and the number of viable cells determined. Cells were then re-suspended in sterile phosphate buffered saline (PBS) at a concentration of 4×10^5 cells. Female Sprague-Dawley rats were intratibially injected in the right leg with 4×10^5 Walker 256 rat mammary gland carcinoma cells in a volume of 6 μL as detailed in Surgical procedure below.
Baseline behavioural testing. The rats were moved to the procedure room 5 days prior to behavioural testing. The rats were then housed, dosed and observed in the procedure room. The behavioural test was performed on all rats on 2 separate occasions prior to surgery, to establish baseline values. Pre-surgery baseline values were taken as the data from the final (second) day of testing (the data from the first day of testing was not included but classed as part of the acclimatisation).
Mechanical allodynia (Von Frey test): Each animal was placed in a wire mesh cage and a series of Von Frey filaments were applied to the plantar surface of the hind paw, from below. The filaments were applied in ascending order (starting with the weakest force), and the withdrawal threshold for both the left and right hind paws were evaluated. Each filament was indented on the mid-plantar surface of the foot to the point where it just started to bend; this was repeated approximately 8 to 10 times per filament at a frequency of approximately 1 Hz. The withdrawal threshold was defined as the lowest force of two or more consecutive Von Frey filaments to elicit a reflex withdrawal response (i.e. a brief paw flick).
Surgical procedure. The animals were surgically prepared over 2 days. Each rat was anaesthetised as necessary with isofluorane in […]. The surface around the incision site was shaved and sterilised. Under aseptic conditions, an incision was made in the skin over the top of the right tibia to expose the tibia head with minimal damage. […]

O=P(O)(O)C(O)(Cn1ccnc1)P(=O)(O)O [Zoledronic acid, reference compound]
Withdrawal Threshold (Log 10 (force (g) × 10 000)) on Day Post-Operative (Day 6, left paw): 5.35 Log 10 (force (g) × 10 000) | Withdrawal threshold (g) on day post-operative (Day 6, left paw): 22.55 g | Withdrawal Threshold (Log 10 (force (g) × 10 000)) on Day Post-Operative (Day 6, right paw): 5.28 Log 10 (force (g) × 10 000) | Withdrawal threshold (g) on day post-operative (Day 6, right paw): 19.49 g | Withdrawal Threshold (Log 10 (force (g) × 10 000)) on Day Post-Operative (Day 12, left paw): 5.17 Log 10 (force (g) × 10 000) | Withdrawal threshold (g) on day post-operative (Day 12, left paw): 15.14 g | Withdrawal Threshold (Log 10 (force (g) × 10 000)) on Day Post-Operative (Day 12, right paw): 4.98 Log 10 (force (g) × 10 000) | Withdrawal threshold (g) on day post-operative (Day 12, right paw): 9.95 g | Withdrawal Threshold (Log 10 (force (g) × 10 000)) on Day Post-Operative (Day 14, left paw): 5.15 Log 10 (force (g) × 10 000) | Withdrawal threshold (g) on day post-operative (Day 14, left paw): 15.02 g | Withdrawal Threshold (Log 10 (force (g) × 10 000)) on Day Post-Operative (Day 14, right paw): 4.99 Log 10 (force (g) × 10 000) | Withdrawal threshold (g) on day post-operative (Day 14, right paw): 10.28 g | Withdrawal Threshold (Log 10 (force (g) × 10 000)) on Day Post-Operative (Day 19, left paw): 5.14 Log 10 (force (g) × 10 000) | Withdrawal threshold (g) on day post-operative (Day 19, left paw): 14.66 g | Withdrawal Threshold (Log 10 (force (g) × 10 000)) on Day Post-Operative (Day 19, right paw): 4.97 Log 10 (force (g) × 10 000) | Withdrawal threshold (g) on day post-operative (Day 19, right paw): 10.37 g | Withdrawal Threshold (Log 10 (force (g) × 10 000)) on Day Post-Operative (Day 21, left paw): 5.15 Log 10 (force (g) × 10 000) | Withdrawal threshold (g) on day post-operative (Day 21, left paw): 15.46 g | Withdrawal threshold (g) on day post-operative (Day 21, left paw, listed as zoledronic acid): 15.46 ± 2.06 g | Withdrawal Threshold (Log 10 (force (g) × 10 000)) on Day Post-Operative (Day 21, right paw): 5.04 Log 10 (force (g) × 10 000) | Withdrawal threshold (g) on day post-operative (Day 21, right paw): 13.25 g | Withdrawal threshold (g) on day post-operative (Day 21, right paw, listed as zoledronic acid): 13.25 ± 2.28 g | Withdrawal Threshold (Log 10 (force (g) × 10 000)) on Day Post-Operative (Pre-Surgery, left paw): 5.32 Log 10 (force (g) × 10 000) | Withdrawal threshold (g) on day post-operative (Pre-Surgery, left paw): 21.02 g | Withdrawal Threshold (Log 10 (force (g) × 10 000)) on Day Post-Operative (Pre-Surgery, right paw): 5.30 Log 10 (force (g) × 10 000) | Withdrawal threshold (g) on day post-operative (Pre-Surgery, right paw): 20.26 g
